One block for each compound: values may come before it.
Biological target: T1, OGG1 (Homo sapiens, UniProt O15527)
T1 construct: made in house
Test: Biochemical fluorescence (fluorophore-quencher) assay of OGG1 incision rate, 8-oxoA substrate
Conditions: for AC50 (μM): biochemical assay of virtual screening hits (NCI samples), Table S1; for AC50 (CI95%) / AC50: concentration giving 50% of the incision rate of OGG1 with APE1 (2 nM) control; for AC50: read-out: AC50 (CI95%); call rule not given here

T1 sequence (O15527 whole entry): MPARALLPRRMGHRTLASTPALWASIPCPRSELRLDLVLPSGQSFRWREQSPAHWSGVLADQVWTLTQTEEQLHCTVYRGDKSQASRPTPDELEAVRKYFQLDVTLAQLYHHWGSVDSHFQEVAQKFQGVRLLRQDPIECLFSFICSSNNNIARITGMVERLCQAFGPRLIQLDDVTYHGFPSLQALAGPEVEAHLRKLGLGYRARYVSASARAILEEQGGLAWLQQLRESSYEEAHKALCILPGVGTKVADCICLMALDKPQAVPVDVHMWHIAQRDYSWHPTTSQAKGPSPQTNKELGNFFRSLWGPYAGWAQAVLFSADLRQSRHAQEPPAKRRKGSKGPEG

Compound: COc1ccc2[nH]c(-c3cccnc3)c(CCN)c2c1 [Compound 3, 2-(5-Methoxy-2-(pyridin-3-yl)-1H-indol-3-yl)-ethan-1-amine]
AC50 (CI95%): inactive

Compound: Oc1ccc(-c2cc3ccccc3[nH]2)cn1 [Compound 21, 5-(1H-Indol-2-yl)-pyridin-2-ol]
AC50 (CI95%): inactive

Compound: Oc1cncc(-c2cc3ccccc3[nH]2)c1 [Compound 20, 5-(1H-Indol-2-yl)-pyridin-3-ol]
AC50: 2.8 µM

Compound: COc1ccc2[nH]c(-c3cccnc3)cc2c1 [Compound 14, 5-Methoxy-2-(pyridin-3-yl)-1H-indole]
AC50: 13 µM

Compound: Fc1ccc(-c2cc3ccccc3[nH]2)cn1 [Compound 17, 2-(6-Fluoropyridin-3-yl)-1H-indole]
AC50 (CI95%): inactive

Compound: Cc1ccc2[nH]c(-c3cccnc3)cc2c1 [Compound 11, 5-Methyl-2-(pyridin-3-yl)-1H-indole]
AC50: 5.7 µM

Compound: c1cncc(-c2cc3ccccc3[nH]2)c1 [Compound 10, 2-(Pyridin-3-yl)-1H-indole]
AC50: 1.7 µM

Compound: Nc1ccc(-c2cc3ccccc3[nH]2)cn1 [Compound 19, 5-(1H-Indol-2-yl)-pyridin-2-amine]
AC50: 9.3 µM

Compound: Cc1ccc2[nH]c(-c3cccnc3)c(CCN)c2c1 [Compound 2, 2-(5-Methyl-2-(pyridin-3-yl)-1H-indol-3-yl)-ethan-1-amine]
AC50 (CI95%): inactive

Compound: NCCc1c(-c2ccccc2)[nH]c2cc(F)ccc12 [Compound 9, 6-Fluoro-2-phenyltryptamine]
AC50 (CI95%): inactive

Compound: Fc1cncc(-c2cc3ccccc3[nH]2)c1 [Compound 16, 2-(5-Fluoropyridin-3-yl)-1H-indole]
AC50: 1.4 µM

Compound: NCCc1c(-c2cccnc2)[nH]c2cc(F)ccc12 [Compound 35, 2-(6-Fluoro-2-(pyridin-3-yl)-1H-indol-3-yl)-ethan-1-amine]
OGG1 activation, SAR result in words: tolerated
AC50: 5.3 µM

Compound: NCCc1c(-c2cccnc2)[nH]c2cc(O)ccc12 [Compound 31, 3-(2-Aminoethyl)-2-(pyridin-3-yl)-1H-indol-6-ol]
AC50 (CI95%): inactive

Compound: NCCc1c(-c2cccnc2)[nH]c2ccc(Cl)cc12 [Compound 4, 2-(5-Chloro-2-(pyridin-3-yl)-1H-indol-3-yl)-ethan-1-amine]
AC50 (CI95%): inactive

Compound: NCCc1c(-c2cccnc2)[nH]c2c(O)cccc12 [Compound 32, 3-(2-Aminoethyl)-2-(pyridin-3-yl)-1H-indol-7-ol]
AC50 (CI95%): inactive

Compound: Cc1ccc(-c2cc3ccccc3[nH]2)cn1 [Compound 23, 2-(6-Methylpyridin-3-yl)-1H-indole]
AC50: 14 µM

Compound: NCCc1c(-c2cccnc2)[nH]c2ccccc12 [Compound 1, 2-(2-(Pyridin-3-yl)-1H-indol-3-yl)-ethan-1-amine]
AC50: 4.1 µM

Compound: Cc1cccc2c(CCN)c(-c3cccnc3)[nH]c12 [Compound 5, 2-(7-Methyl-2-(pyridin-3-yl)-1H-indol-3-yl)-ethan-1-amine]
AC50 (CI95%): inactive

Compound: Oc1ccc2[nH]c(-c3cccnc3)cc2c1 [Compound 15, 2-(Pyridin-3-yl)-1H-indol-5-ol]
AC50: 6 µM

Compound: NCCCc1c(-c2cccnc2)[nH]c2ccc(O)cc12 [Compound 40, 3-(3-Aminopropyl)-2-(pyridin-3-yl)-1H-indol-5-ol]
OGG1 activation, SAR result in words: not tolerated
AC50 (CI95%): inactive

Compound: c1cncc(-c2cc3ccccc3o2)c1 [Compound 28, 3-(Benzofuran-2-yl)-pyridine]
AC50: 4.1 µM

Compound: CC(=O)C1CC(C)=CCC12C(=O)Nc1ccccc12 (centres unmarked) [NSC 642717]
AC50 (μM): inactive

Compound: NCCc1c(-c2cccnc2)[nH]c2ccc(N)cc12 [Compound 36, 3-(2-Aminoethyl)-2-(pyridin-3-yl)-1H-indol-5-amine]
OGG1 activation, SAR result in words: not tolerated
AC50 (CI95%): inactive

Compound: c1ccc2[nH]c(-c3cnc4[nH]ccc4c3)cc2c1 [Compound 26, 5-(1H-Indol-2-yl)-1H-pyrrolo[2,3-b]-pyridine]
AC50: 1.4 µM

Compound: NCCc1c(-c2cccnc2)[nH]c2cccc(O)c12 [Compound 33, 3-(2-Aminoethyl)-2-(pyridin-3-yl)-1H-indol-4-ol]
AC50 (CI95%): inactive

Compound: CC(N)Cc1c[nH]c2ccc(Cl)cc12.Cl (centres unmarked) [NSC 50457]
AC50 (μM): inactive

Compound: NCCc1c(-c2ccccc2)[nH]c2ccccc12 [Compound 7, 2-Phenyltryptamine]
OGG1 activation, SAR result in words: complete loss of activity
AC50 (CI95%): inactive

Compound: NC(Cc1c(-c2cccnc2)[nH]c2ccccc12)C(=O)O (centres unmarked) [Compound 6, 2-Amino-3-(2-(pyridin-3-yl)-1H-indol-3-yl)-propanoic Acid]
OGG1 activation, SAR result in words: abolished activity
AC50 (CI95%): inactive

Compound: c1ccc2ncc(-c3cc4ccccc4[nH]3)cc2c1 [Compound 27, 3-(1H-Indol-2-yl)-quinoline]
OGG1 activation, SAR result in words: not tolerated
AC50 (CI95%): inactive

Compound: NCCc1c(-c2ccncc2)[nH]c2ccc(O)cc12 [Compound 43, 3-(2-Aminoethyl)-2-(pyridin-4-yl)-1H-indol-5-ol]
OGG1 activation, SAR result in words: lost activity
AC50 (CI95%): inactive

Compound: Brc1ccc2[nH]c(-c3cccnc3)cc2c1 [Compound 13, 5-Bromo-2-(pyridin-3-yl)-1H-indole]
AC50: 1 µM

Compound: CC(N)Cc1c[nH]c2ccccc12 (centres unmarked) [NSC 97069]
AC50 (μM): inactive

Compound: NCCc1c(-c2ccccc2)[nH]c2ccc(O)cc12 [Compound 8, 5-Hydroxy-2-phenyltryptamine]
OGG1 activation, SAR result in words: showed potency
AC50: 4 µM

Compound: Clc1ccc(-c2cc3ccccc3[nH]2)cn1 [Compound 22, 2-(6-Chloropyridin-3-yl)-1H-indole]
AC50 (CI95%): inactive

Compound: Cl.NCCc1c[nH]c2ccccc12 [NSC 522258]
AC50 (μM): inactive

The remaining lines, values ahead:

AC50 (μM): inactive
Compound: O=C1OC(c2c[nH]c3ccccc23)c2ccccc21 (centres unmarked) [NSC 42087]

AC50 (μM): inactive
Compound: Cc1[nH]c2ccccc2c(=O)c1CNCc1ccccc1 [NSC 133478]

AC50 (μM): inactive
Compound: Cl.N[C@@H](Cc1c[nH]c2ccccc12)C(=O)OCc1ccccc1 [NSC 202376]

AC50 (μM): inactive
Compound: CC(=O)N1C(C(=O)NC2CCCCC2)CSC1c1ccccc1 (centres unmarked) [NSC 669300]

AC50 (μM): inactive
Compound: CCOc1ccccc1C1NC(=O)c2ccccc2N1 (centres unmarked) [NSC 158389]

AC50 (μM): inactive
Compound: Cn1c(=O)c2[nH]c(C3CCCCC3)nc2n(C)c1=O [NSC 14383]

AC50 (μM): inactive
Compound: O=C1NC(c2ccccc2Cl)Nc2ccccc21 (centres unmarked) [NSC 175633]

AC50 (μM): inactive
Compound: NC(=O)C(O)c1c[nH]c2ccccc12 (centres unmarked) [NSC 128331]

OGG1 activation, SAR result in words: slight increase in activity
AC50: 0.4 µM
Compound: NCCc1c(-c2cncs2)[nH]c2ccc(O)cc12 [Compound 45, 3-(2-Aminoethyl)-2-(thiazol-5-yl)-1H-indol-5-ol]

AC50 (μM): inactive
Compound: Cc1ccc2c(c1)Nc1ccccc1C(=O)N2 [NSC 202050]

AC50 (μM): inactive
Compound: Cc1ccc(NC(C(=O)c2ccccc2)c2ccccc2)cc1 (centres unmarked) [NSC 26933]

AC50 (μM): inactive
Compound: CNC1NC(=O)c2ccccc2N1Cc1ccc(F)cc1 (centres unmarked) [NSC 364164]

OGG1 activation, SAR result in words: slight increase in activity
AC50: 0.25 µM
Compound: NCCc1c(-c2cncnc2)[nH]c2ccc(O)cc12 [Compound 44, 3-(2-Aminoethyl)-2-(pyrimidin-5-yl)-1H-indol-5-ol]

AC50 (μM): inactive
Compound: O=C1Nc2ccccc2C1=NCCc1c[nH]c2ccccc12 [NSC 136042]

AC50 (μM): inactive
Compound: O=C(NCCc1c(-c2ccccc2)[nH]c2ccccc12)C(F)(F)F [NSC 674639]

AC50 (μM): inactive
Compound: CCOC(=O)c1ccc2c(c1)NCc1cccc(OC)c1O2 [NSC 364889]

AC50 (CI95%): inactive
Compound: NCCc1cncc(-c2cc3cc(O)ccc3[nH]2)c1 [Compound 49, 2-(5-(2-Aminoethyl)-pyridin-3-yl)-1H-indol-5-ol]

AC50 (μM): inactive
Compound: O=C1c2ccccc2C(O)N1CCc1c[nH]c2ccccc12 (centres unmarked) [NSC 338155]

OGG1 activation, SAR result in words: inhibited activity
AC50 (μM): inactive
IC50 (inhibition of OGG1): 15.5 µM
Compound: CN(C)Cc1c(-c2ccccc2)[nH]c2ccccc12 [TH12166]

AC50 (μM): inactive
Compound: O=C1CCCCC1C(Nc1ccccc1)c1ccccc1 (centres unmarked) [NSC 123043]

OGG1 activation, SAR result in words: some residual activity
AC50: 12 µM
Compound: NCCc1[nH]c2ccc(O)cc2c1-c1cncnc1 [Compound 53, 2-(2-Aminoethyl)-3-(pyrimidin-5-yl)-1H-indol-5-ol]

AC50 (μM): inactive
Compound: CC1=CC2C(c3ccccc3)Nc3ccccc3N2C1=O (centres unmarked) [NSC 263759]

AC50 (μM): inactive
Compound: O=c1cc(Nc2ccc(Cl)c(Cl)c2)[nH]c(=O)[nH]1 [NSC 62573]

AC50 (μM): inactive
Compound: O=c1[nH]cc(Cc2cccc(OCc3ccccc3)c2)c(=O)[nH]1 [NSC 210777]

AC50 (CI95%): inactive
Compound: NCCc1[nH]c2ccc(O)cc2c1-c1cccnc1 [Compound 51, 2-(2-Aminoethyl)-3-(pyridin-3-yl)-1H-indol-5-ol]

AC50 (μM): inactive
Compound: O=C1CCCC2=C1C(c1ccncc1)Nc1ccccc1N2 (centres unmarked) [NSC 186218]

AC50 (μM): inactive
Compound: FC(F)(F)c1nc(Nc2ccccc2)c2[nH]cnc2n1 [NSC 56385]

OGG1 activation, SAR result in words: some residual activity
AC50: 8.5 µM
Compound: NCCc1[nH]c2cc(F)c(O)cc2c1-c1cccnc1 [Compound 52, 2-(2-Aminoethyl)-6-fluoro-3-(pyridin-3-yl)-1H-indol-5-ol]

AC50 (μM): weak
Compound: O=C1Nc2ccccc2C12CCNC2Cc1ccccc1 (centres unmarked) [NSC 643518]

AC50 (μM): inactive
Compound: CC1(C)CC(=O)C2=C(C1)Nc1ccc(Cl)cc1NC2c1ccccc1 (centres unmarked) [NSC 186216]

AC50 (μM): inactive
Compound: OC1(Cc2ccccn2)c2ccccc2CC1c1ccccc1 (centres unmarked) [NSC 147943]

AC50 (μM): inactive
Compound: NC(=O)C1CCCN(C(=O)Nc2ccccc2F)C1 (centres unmarked) [NSC 213798]

AC50: 0.29 µM
Compound: CNCCc1c(-c2cccnc2)[nH]c2ccc(O)cc12 [Compound 46, 3-(2-(Methylamino)-ethyl)-2-(pyridin-3-yl)-1H-indol-5-ol]

AC50 (μM): inactive
Compound: c1ccc(C2Nc3ccccc3C3OCCCC23)cc1 (centres unmarked) [NSC 645796]
